Laboratory results: PubChem BioAssay AID1745844 (Carcinogenic Potency Database (CPDB), 2022)

Tested on: rodent lifetime carcinogenesis bioassay, tumor incidence TD50
Experiment: carcinogenic potency in animals, long-term in vivo studies, CPDB compilation (AID 1745844)
Settings: in drinking water

With Cc1cc(-c2ccc(N)c(C)c2)ccc1N the TD50 (mouse, strain BALB/cStCrlfC3Hf/Nctr, females, site: lung, lesion: adenocarcinoma, dosed 52 weeks, study length 52 weeks) was 147 mg/kg/day, the TD50 (mouse, strain BALB/cStCrlfC3Hf/Nctr, females, site: lung, lesion: adenocarcinoma, dosed 78 weeks, study length 78 weeks) was 168 mg/kg/day and the TD50 (mouse, strain BALB/cStCrlfC3Hf/Nctr, females, site: lung, lesion: several types, types named in the paper, dosed 52 weeks, study length 52 weeks) was 28.1 mg/kg/day. It also gave a TD50 (mouse, strain BALB/cStCrlfC3Hf/Nctr, females, site: lung, lesion: several types, types named in the paper, dosed 78 weeks, study length 78 weeks) of 295 mg/kg/day, a TD50 (mouse, strain BALB/cStCrlfC3Hf/Nctr, males, site: lung, lesion: adenocarcinoma, dosed 52 weeks, study length 52 weeks) of 123 mg/kg/day and a TD50 (mouse, strain BALB/cStCrlfC3Hf/Nctr, males, site: lung, lesion: adenocarcinoma, dosed 112 weeks, study length 112 weeks) of 50.1 mg/kg/day. It also gave a TD50 (mouse, strain BALB/cStCrlfC3Hf/Nctr, males, site: lung, lesion: several types, types named in the paper, dosed 52 weeks, study length 52 weeks) of 684 mg/kg/day, a TD50 (mouse, strain BALB/cStCrlfC3Hf/Nctr, males, site: lung, lesion: several types, types named in the paper, dosed 78 weeks, study length 78 weeks) of 423 mg/kg/day and a TD50 (mouse, strain BALB/cStCrlfC3Hf/Nctr, males, site: lung, lesion: several types, types named in the paper, dosed 112 weeks, study length 112 weeks) of 28.6 mg/kg/day. It also gave a TD50 (rat, strain Fischer 344, females, site: Zymbal's gland, lesion: adenoma + adenoma, bilateral + carcinoma + carcinoma, bilateral, dosed 60 weeks, study length 60 weeks) of 1.27 mg/kg/day, a TD50 (rat, strain Fischer 344, females, site: Zymbal's gland, lesion: adenoma + adenoma, bilateral, dosed 60 weeks, study length 60 weeks) of 3.08 mg/kg/day and a TD50 (rat, strain Fischer 344, females, site: Zymbal's gland, lesion: carcinoma + carcinoma, bilateral, dosed 60 weeks, study length 60 weeks) of 2 mg/kg/day. For the same molecule, the TD50 (rat, strain Fischer 344, females, site: all sites, lesion: mononuclear-cell leukemia, dosed 60 weeks, study length 60 weeks) was 6.46 mg/kg/day, the TD50 (rat, strain Fischer 344, females, site: any site (literature study), lesion: several types, types named in the paper, dosed 60 weeks, study length 60 weeks) was 0.462 mg/kg/day and the TD50 (rat, strain Fischer 344, females, site: brain, lesion: astrocytoma, malignant + malignant glioma + meningioma, malignant, dosed 60 weeks, study length 60 weeks) was 15.4 mg/kg/day. For the same molecule, the TD50 (rat, strain Fischer 344, females, site: clitoral gland + colon + duodenum + ileum + jejunum + liver + lung + mammary gland + pharynx + rectum + skin + tongue + Zymbal's gland, lesion: adenoma + adenoma, bilateral + carcinoma + carcinoma, bilateral + adenocarcinoma + adenomatous polyp + mucinous adenocarcinoma + mucin, dosed 60 weeks, study length 60 weeks) was 0.418 mg/kg/day, the TD50 (rat, strain Fischer 344, females, site: clitoral gland, lesion: adenoma + adenoma, bilateral + carcinoma + carcinoma, bilateral, dosed 60 weeks, study length 60 weeks) was 0.847 mg/kg/day and the TD50 (rat, strain Fischer 344, females, site: clitoral gland, lesion: adenoma + adenoma, bilateral, dosed 60 weeks, study length 60 weeks) was 1.31 mg/kg/day. The TD50 (rat, strain Fischer 344, females, site: clitoral gland, lesion: carcinoma + carcinoma, bilateral, dosed 60 weeks, study length 60 weeks) was 2.58 mg/kg/day, the TD50 (rat, strain Fischer 344, females, site: colon + rectum, lesion: adenocarcinoma + adenomatous polyp, dosed 60 weeks, study length 60 weeks) was 6.65 mg/kg/day and the TD50 (rat, strain Fischer 344, females, site: colon + rectum, lesion: adenomatous polyp, dosed 60 weeks, study length 60 weeks) was 7.11 mg/kg/day. It also gave a TD50 (rat, strain Fischer 344, females, site: duodenum + ileum + jejunum, lesion: adenocarcinoma + adenomatous polyp + mucinous adenocarcinoma + mucinous cystadenocarcinoma, dosed 60 weeks, study length 60 weeks) of 11 mg/kg/day, a TD50 (rat, strain Fischer 344, females, site: duodenum + ileum + jejunum, lesion: adenocarcinoma + mucinous adenocarcinoma + mucinous cystadenocarcinoma, dosed 60 weeks, study length 60 weeks) of 15.4 mg/kg/day and a TD50 (rat, strain Fischer 344, females, site: liver, lesion: hepatocellular adenoma + hepatocellular carcinoma + neoplastic nodule, dosed 60 weeks, study length 60 weeks) of 6.97 mg/kg/day. For the same molecule, the TD50 (rat, strain Fischer 344, females, site: liver, lesion: hepatocellular carcinoma + neoplastic nodule, dosed 60 weeks, study length 60 weeks) was 6.97 mg/kg/day, the TD50 (rat, strain Fischer 344, females, site: liver, lesion: neoplastic nodule, dosed 60 weeks, study length 60 weeks) was 7.62 mg/kg/day and the TD50 (rat, strain Fischer 344, females, site: lung, lesion: alveolar/bronchiolar adenoma + alveolar/bronchiolar carcinoma, dosed 60 weeks, study length 60 weeks) was 11.9 mg/kg/day. For the same molecule, the TD50 (rat, strain Fischer 344, females, site: lung, lesion: alveolar/bronchiolar adenoma, dosed 60 weeks, study length 60 weeks) was 13.6 mg/kg/day, the TD50 (rat, strain Fischer 344, females, site: mammary gland, lesion: adenocarcinoma + fibroadenoma, dosed 60 weeks, study length 60 weeks) was 5.77 mg/kg/day and the TD50 (rat, strain Fischer 344, females, site: mammary gland, lesion: adenocarcinoma, dosed 60 weeks, study length 60 weeks) was 8.33 mg/kg/day. For the same molecule, the TD50 (rat, strain Fischer 344, females, site: pharynx + tongue, lesion: squamous-cell carcinoma + squamous-cell papilloma, dosed 60 weeks, study length 60 weeks) was 3.2 mg/kg/day, the TD50 (rat, strain Fischer 344, females, site: pharynx + tongue, lesion: squamous-cell carcinoma, dosed 60 weeks, study length 60 weeks) was 11.8 mg/kg/day and the TD50 (rat, strain Fischer 344, females, site: pharynx + tongue, lesion: squamous-cell papilloma, dosed 60 weeks, study length 60 weeks) was 4.26 mg/kg/day. The TD50 (rat, strain Fischer 344, females, site: skin, lesion: basal-cell adenoma + basal-cell carcinoma, dosed 60 weeks, study length 60 weeks) was 3.8 mg/kg/day, the TD50 (rat, strain Fischer 344, females, site: skin, lesion: basal-cell adenoma, dosed 60 weeks, study length 60 weeks) was 5.77 mg/kg/day and the TD50 (rat, strain Fischer 344, females, site: skin, lesion: basal-cell carcinoma, dosed 60 weeks, study length 60 weeks) was 11.6 mg/kg/day. The TD50 (rat, strain Fischer 344, females, site: skin, lesion: squamous-cell carcinoma + squamous-cell papilloma, dosed 60 weeks, study length 60 weeks) was 3.17 mg/kg/day, the TD50 (rat, strain Fischer 344, females, site: skin, lesion: squamous-cell carcinoma, dosed 60 weeks, study length 60 weeks) was 5.56 mg/kg/day and the TD50 (rat, strain Fischer 344, females, site: skin, lesion: squamous-cell papilloma, dosed 60 weeks, study length 60 weeks) was 7.06 mg/kg/day. The TD50 (rat, strain Fischer 344, males, site: Zymbal's gland, lesion: adenoma + adenoma, bilateral + carcinoma + carcinoma, bilateral, dosed 58 weeks, study length 60 weeks) was 1.12 mg/kg/day, the TD50 (rat, strain Fischer 344, males, site: Zymbal's gland, lesion: adenoma + adenoma, bilateral, dosed 58 weeks, study length 60 weeks) was 2.38 mg/kg/day and the TD50 (rat, strain Fischer 344, males, site: Zymbal's gland, lesion: carcinoma + carcinoma, bilateral, dosed 58 weeks, study length 60 weeks) was 1.93 mg/kg/day. For the same molecule, the TD50 (rat, strain Fischer 344, males, site: adrenal medulla, lesion: pheochromocytoma, benign, dosed 58 weeks, study length 60 weeks) was 10.6 mg/kg/day, the TD50 (rat, strain Fischer 344, males, site: any site (literature study), lesion: several types, types named in the paper, dosed 58 weeks, study length 60 weeks) was 0.334 mg/kg/day and the TD50 (rat, strain Fischer 344, males, site: brain, lesion: glioma malignant, focal, mild + malignant glioma + meningioma, malignant, dosed 58 weeks, study length 60 weeks) was 26.1 mg/kg/day. The TD50 (rat, strain Fischer 344, males, site: cecum + colon + duodenum + ileum + jejunum + large intestine + liver + lung + multiple organs + pharynx + preputial gland + rectum + skin + tongue, lesion: adenomatous polyp + adenocarcinoma + mucinous cystadenocarcinoma + hepatocellular carcinoma + neoplastic nodule + alveolar/bronchi, dosed 58 weeks, study length 60 weeks) was 0.346 mg/kg/day, the TD50 (rat, strain Fischer 344, males, site: cecum + colon + large intestine + rectum, lesion: adenomatous polyp + adenocarcinoma + mucinous cystadenocarcinoma, dosed 58 weeks, study length 60 weeks) was 3.76 mg/kg/day and the TD50 (rat, strain Fischer 344, males, site: cecum + colon + rectum, lesion: adenomatous polyp, dosed 58 weeks, study length 60 weeks) was 4.87 mg/kg/day. The TD50 (rat, strain Fischer 344, males, site: colon + large intestine + rectum, lesion: adenocarcinoma + mucinous cystadenocarcinoma, dosed 58 weeks, study length 60 weeks) was 14.4 mg/kg/day, the TD50 (rat, strain Fischer 344, males, site: duodenum + ileum + jejunum, lesion: mucinous cystadenocarcinoma + adenocarcinoma + adenomatous polyp, dosed 58 weeks, study length 60 weeks) was 6.99 mg/kg/day and the TD50 (rat, strain Fischer 344, males, site: duodenum + ileum + jejunum, lesion: mucinous cystadenocarcinoma + adenocarcinoma, dosed 58 weeks, study length 60 weeks) was 7.79 mg/kg/day. It also gave a TD50 (rat, strain Fischer 344, males, site: liver, lesion: hepatocellular adenoma + hepatocellular carcinoma + neoplastic nodule, dosed 58 weeks, study length 60 weeks) of 0.898 mg/kg/day, a TD50 (rat, strain Fischer 344, males, site: liver, lesion: hepatocellular carcinoma + neoplastic nodule, dosed 58 weeks, study length 60 weeks) of 0.898 mg/kg/day and a TD50 (rat, strain Fischer 344, males, site: liver, lesion: hepatocellular carcinoma, dosed 58 weeks, study length 60 weeks) of 2.76 mg/kg/day. The TD50 (rat, strain Fischer 344, males, site: liver, lesion: neoplastic nodule, dosed 58 weeks, study length 60 weeks) was 1.12 mg/kg/day, the TD50 (rat, strain Fischer 344, males, site: lung, lesion: alveolar/bronchiolar adenoma + alveolar/bronchiolar carcinoma, dosed 58 weeks, study length 60 weeks) was 4.93 mg/kg/day and the TD50 (rat, strain Fischer 344, males, site: lung, lesion: alveolar/bronchiolar adenoma, dosed 58 weeks, study length 60 weeks) was 5.47 mg/kg/day. For the same molecule, the TD50 (rat, strain Fischer 344, males, site: multiple organs, lesion: mesothelioma, malignant, dosed 58 weeks, study length 60 weeks) was 9.45 mg/kg/day, the TD50 (rat, strain Fischer 344, males, site: pharynx + tongue, lesion: squamous-cell carcinoma + squamous-cell papilloma, dosed 58 weeks, study length 60 weeks) was 8.47 mg/kg/day and the TD50 (rat, strain Fischer 344, males, site: pharynx + tongue, lesion: squamous-cell carcinoma, dosed 58 weeks, study length 60 weeks) was 26.7 mg/kg/day. For the same molecule, the TD50 (rat, strain Fischer 344, males, site: preputial gland, lesion: adenoma + carcinoma, dosed 58 weeks, study length 60 weeks) was 3.96 mg/kg/day, the TD50 (rat, strain Fischer 344, males, site: preputial gland, lesion: adenoma, dosed 58 weeks, study length 60 weeks) was 4.94 mg/kg/day and the TD50 (rat, strain Fischer 344, males, site: skin, lesion: basal-cell adenoma + basal-cell carcinoma, dosed 58 weeks, study length 60 weeks) was 0.5 mg/kg/day. For the same molecule, the TD50 (rat, strain Fischer 344, males, site: skin, lesion: basal-cell adenoma, dosed 58 weeks, study length 60 weeks) was 0.534 mg/kg/day, the TD50 (rat, strain Fischer 344, males, site: skin, lesion: basal-cell carcinoma, dosed 58 weeks, study length 60 weeks) was 8.85 mg/kg/day and the TD50 (rat, strain Fischer 344, males, site: skin, lesion: keratoacanthoma, dosed 58 weeks, study length 60 weeks) was 4.58 mg/kg/day. It also gave a TD50 (rat, strain Fischer 344, males, site: skin, lesion: sebaceous adenoma, dosed 58 weeks, study length 60 weeks) of 5.62 mg/kg/day, a TD50 (rat, strain Fischer 344, males, site: skin, lesion: squamous-cell carcinoma + squamous-cell papilloma, dosed 58 weeks, study length 60 weeks) of 1.55 mg/kg/day and a TD50 (rat, strain Fischer 344, males, site: skin, lesion: squamous-cell carcinoma, dosed 58 weeks, study length 60 weeks) of 2.8 mg/kg/day. For the same molecule, the TD50 (rat, strain Fischer 344, males, site: skin, lesion: squamous-cell papilloma, dosed 58 weeks, study length 60 weeks) was 3.28 mg/kg/day.
